# Results as given in US11459339B2, “Biaryl derivative, preparation method thereof and pharmaceutical application thereof” (Abbisko Therapeutics Co., Ltd., priority 2018, dated 2022).
# Experiments:
# [1] = target: interaction between PD-1 and PD-L1 (Homo sapiens (Human), UniProt Q9NZQ7); experiment: PD1-PDL1 HTRF binding activity test (Cisbio PD-1/PD-L1 binding assay kit); conditions: read-out: PD1-PDL1 HTRF Binding Activity IC50
# [2] = target: interaction between PD-1 and PD-L1 expressed on cell surfaces (Homo sapiens (Human), UniProt Q9NZQ7); experiment: Jurkat reporter gene cellular assay (Jurkat/NF-κB-luc/PD1 cells cocultured with Raji-PD-L1 cells, OKT-3 stimulation); type: cell-based; conditions: NF-κB-luc reporter activation fold, 6 hrs; read-out: Cell Activity EC50
# Outline: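 Jurkat cells stably expressing human PD-1 and NF-κB-luciferase were cocultured with Raji cells stably expressing human PD-L1 under OKT-3 stimulation, with compound present. Luminescence was read after 6 h.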
# interaction between PD-1 and PD-L1, sequence (Q9NZQ7 19-238): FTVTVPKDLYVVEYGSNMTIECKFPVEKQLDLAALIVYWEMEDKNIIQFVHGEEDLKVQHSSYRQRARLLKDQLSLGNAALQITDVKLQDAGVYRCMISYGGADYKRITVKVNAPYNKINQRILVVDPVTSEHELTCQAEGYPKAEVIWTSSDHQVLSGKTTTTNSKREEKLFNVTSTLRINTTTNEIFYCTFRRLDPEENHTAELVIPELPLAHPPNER
# interaction between PD-1 and PD-L1 expressed on cell surfaces, sequence (Q9NZQ7 19-290): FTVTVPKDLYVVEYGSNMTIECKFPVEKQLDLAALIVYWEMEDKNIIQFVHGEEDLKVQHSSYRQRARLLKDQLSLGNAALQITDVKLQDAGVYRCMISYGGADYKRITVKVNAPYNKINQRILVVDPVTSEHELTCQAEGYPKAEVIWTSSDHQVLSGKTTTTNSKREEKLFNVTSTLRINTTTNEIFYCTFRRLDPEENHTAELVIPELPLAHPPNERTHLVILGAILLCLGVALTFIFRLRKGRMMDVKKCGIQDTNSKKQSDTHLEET
Structure (SMILES),IC50 [1],EC50 [2]
Cc1c(NC(=O)c2cc(C3CC3)c(CN3CC[C@@H](O)C3)cn2)cccc1-c1cccc(NC(=O)c2cc(C3CC3)c(CN3CC[C@@H](O)C3)cn2)c1C [Example 100],1.51 nM,122 nM
"Cc1c(NC(=O)c2cc(C3CC3)c(CN3CC[C@H](O)C3)cn2)cccc1-c1cccc(NC(=O)c2cc(C3CC3)c(CN3CC[C@H](O)C3)cn2)c1C [Example 101, N,N′-(2,2′-dimethyl-[1,1′-biphenyl]-3,3′-diyl)bis(4-cyclopropyl-5-(((S)-3-hydroxypyrrolidin-1-yl)methyl)picolinamide)]",1.09 nM,267 nM
"Cc1c(NC(=O)c2cc(C3CC3)c(CN3CCC(O)CC3)cn2)cccc1-c1cccc(NC(=O)c2cc(C3CC3)c(CN3CCC(O)CC3)cn2)c1C [Example 102, N,N′-(2,2′-dimethyl-[1,1′-biphenyl]-3,3′-diyl)bis(4-cyclopropyl-5-((4-hydroxypiperidin-1-yl)methyl)picolinamide)]",3.61 nM,194 nM
"Cc1c(NC(=O)c2cc(C3CC3)c(CNC3CC(O)C3)cn2)cccc1-c1cccc(NC(=O)c2cc(C3CC3)c(CN[C@H]3C[C@@H](O)C3)cn2)c1C (some centres unmarked) [Example 103, N,N′-(2,2′-dimethyl-[1,1′-biphenyl]-3,3′-diyl)bis(4-cyclopropyl-5-((((1s,3s)-3-hydroxycyclobutyl)amino)methyl)picolinamide)]",4.11 nM,206 nM
Cc1c(NC(=O)c2cc(C3CC3)c(CN[C@H](CO)C(=O)O)cn2)cccc1-c1cccc(NC(=O)c2cc(C3CC3)c(CN[C@H](CO)C(=O)O)cn2)c1C [Example 105],0.27 nM,14.1 nM
"CCOC(=O)[C@@H](CO)NCc1cnc(C(=O)Nc2cccc(-c3cccc(NC(=O)c4cc(C5CC5)c(CN[C@H](CO)C(=O)OCC)cn4)c3C)c2C)cc1C1CC1 [Example 106, diethyl 2,2′-((((((2,2′-dimethyl-[1,1′-biphenyl]-3,3′-diyl)bis(azanediyl))bis (carbonyl))bis(4-cyclopropylpyridine-6,3-diyl))bis(methylene))bis(azanediyl)) (2R,2′R)-bis(3-hydroxypropanoate)]",22.5 nM,1260 nM
"CCOC(=O)[C@H](CO)NCc1cnc(C(=O)Nc2cccc(-c3cccc(NC(=O)c4cc(C5CC5)c(CN[C@@H](CO)C(=O)OCC)cn4)c3C)c2C)cc1C1CC1 [Example 107, diethyl 2,2′-((((((2,2′-dimethyl-[1,1′-biphenyl]-3,3′-diyl)bis(azanediyl))bis(carbonyl))bis(4-cyclopropylpyridine-6,3-diyl))bis (methylene))bis(azanediyl))(2S,2′S)-bis (3-hydroxypropanoate)]",15.2 nM,753 nM
"Cc1c(NC(=O)c2cc(C3CC3)c(CN[C@@H](CO)C(=O)O)cn2)cccc1-c1cccc(NC(=O)c2cc(C3CC3)c(CN[C@@H](CO)C(=O)O)cn2)c1C [Example 108, (2S,2′S)-2,2′-((((((2,2′-dimethyl-[1,1′-biphenyl]-3,3′-diyl)bis(azanediyl))bis(carbonyl))bis(4-cyclopropylpyridine-6,3-diyl))bis(methylene))bis(azanediyl)) bis(3-hydroxypropanoic acid)]",0.84 nM,42.3 nM
"COC(=O)[C@@H]1CCCCN1Cc1cnc(C(=O)Nc2cccc(-c3cccc(NC(=O)c4cc(C5CC5)c(CN5CCCC[C@H]5C(=O)OC)cn4)c3C)c2C)cc1C1CC1 [Example 109, dimethyl 1,1′-(((((2,2′-dimethyl-[1,1′-biphenyl]-3,3′-diyl)bis(azanediyl))bis(carbonyl))bis(4-cyclopropylpyridine-6,3-diyl))bis(methylene))(2S,2′S)-bis (piperidine-2-carboxylate)]",375 nM,> 10000 nM
"Cc1c(NC(=O)c2cc(C3CC3)c(CN3CCCC[C@H]3C(=O)O)cn2)cccc1-c1cccc(NC(=O)c2cc(C3CC3)c(CN3CCCC[C@H]3C(=O)O)cn2)c1C [Example 110, (2S,2′S)-1,1′-(((((2,2′-dimethyl-[1,1′-biphenyl]-3,3′-diyl)bis(azanediyl))bis (carbonyl))bis(4-cyclopropylpyridine-6,3-diyl))bis(methylene))bis(piperidine-2-carboxylic acid)]",0.67 nM,51 nM
"CCOC(=O)[C@@H](NCc1cnc(C(=O)Nc2cccc(-c3cccc(NC(=O)c4cc(C5CC5)c(CN[C@H](C(=O)OCC)[C@@H](C)O)cn4)c3C)c2C)cc1C1CC1)[C@@H](C)O [Example 111, diethyl 2,2′-((((((2,2′-dimethyl-[1,1′-biphenyl]-3,3′-diyl)bis (azanediyl))bis(carbonyl))bis (4-cyclopropylpyridine-6,3-diyl))bis(methylene))bis(azanediyl)) (2S,2′S,3R,3′R)-bis(3-hydroxybutanoate)]",79.4 nM,5950 nM
"Cc1c(NC(=O)c2cc(C3CC3)c(CN[C@H](C(=O)O)[C@@H](C)O)cn2)cccc1-c1cccc(NC(=O)c2cc(C3CC3)c(CN[C@H](C(=O)O)[C@@H](C)O)cn2)c1C [Example 112, (2S,2′S,3R,3′R)-2,2′-((((((2,2′-dimethyl-[1,1′-biphenyl1]-3,3′-diyl)bis(azanediyl))bis(carbonyl))bis(4-cyclopropylpyridine-6,3-diyl))bis(methylene))bis(azanediyl))bis(3-hydroxybutanoic acid)]",1.02 nM,34.6 nM
Cc1c(NC(=O)c2cc(C3CC3)c(CN[C@H]3CCOC3=O)cn2)cccc1-c1cccc(NC(=O)c2cc(C3CC3)c(CN[C@H]3CCOC3=O)cn2)c1C [Example 113],6.77 nM,979 nM
"Cc1c(NC(=O)c2cc(C3CC3)c(CN[C@@H](CCO)C(=O)O)cn2)cccc1-c1cccc(NC(=O)c2cc(C3CC3)c(CN[C@@H](CCO)C(=O)O)cn2)c1C [Example 114, (2S,2′S)-2,2′-((((((2,2′-dimethyl-[1,1′-biphenyl]-3,3′-diyl)bis(azanediyl))bis(carbonyl))bis (4-cyclopropylpyridine-6,3-diyl))bis (methylene))bis(azanediyl))bis(4-hydroxybutanoic acid)]",5.2 nM,89 nM
"CCOC(=O)C[C@H](NCc1cnc(C(=O)Nc2cccc(-c3cccc(NC(=O)c4cc(C5CC5)c(CN[C@@H](CC(=O)OCC)C(=O)OCC)cn4)c3C)c2C)cc1C1CC1)C(=O)OCC [Example 115, tetraethyl 2,2′-((((((2,2′-dimethyl-[1,1′-biphenyl]-3,3′-diyl)bis(azanediyl))bis(carbonyl))bis(4-cyclopropylpyridine-6,3-diyl))bis(methylene))bis(azanediyl)) (2S,2′S)-disuccinate]",> 400 nM,> 10000 nM
"Cc1c(NC(=O)c2cc(C3CC3)c(CN[C@@H](CC(=O)O)C(=O)O)cn2)cccc1-c1cccc(NC(=O)c2cc(C3CC3)c(CN[C@@H](CC(=O)O)C(=O)O)cn2)c1C [Example 116, (2S,2′S)-2,2′-((((((2,2′-dimethyl-[1,1′-biphenyl]-3,3′-diyl)bis(azanediyl))bis(carbonyl))bis(4-cyclopropylpyridine-6,3-diyl))bis(methylene))bis(azanediyl))disuccinic acid]",0.94 nM,1340 nM
"CCOC(=O)C[C@@H](NCc1cnc(C(=O)Nc2cccc(-c3cccc(NC(=O)c4cc(C5CC5)c(CN[C@H](CC(=O)OCC)C(=O)OCC)cn4)c3C)c2C)cc1C1CC1)C(=O)OCC [Example 117, tetraethyl 2,2′-((((((2,2′-dimethyl-[1,1′-biphenyl]-3,3′-diyl)bis(azanediyl))bis(carbonyl))bis (4-cyclopropylpyridine-6,3-diyl))bis (methylene))bis(azanediyl))(2R,2′R)-disuccinate]",> 400 nM,> 10000 nM
"Cc1c(NC(=O)c2cc(C3CC3)c(CN[C@H](CC(=O)O)C(=O)O)cn2)cccc1-c1cccc(NC(=O)c2cc(C3CC3)c(CN[C@H](CC(=O)O)C(=O)O)cn2)c1C [Example 118, (2R,2′R)-2,2′-((((((2,2′-dimethyl-[1,1′-biphenyl]-3,3′-diyl)bis(azanediyl))bis(carbonyl))bis (4-cyclopropylpyridine-6,3-diyl))bis (methylene))bis(azanediyl))disuccinic acid]",1.17 nM,1040 nM
"CCOC(=O)C(NCc1cnc(C(=O)Nc2cccc(-c3cccc(NC(=O)c4cc(C5CC5)c(CNC(C(=O)OCC)C(=O)OCC)cn4)c3C)c2C)cc1C1CC1)C(=O)OCC [Example 119, tetraethyl 2,2′-((((((2,2′-dimethyl-[1,1′-biphenyl]-3,3′-diyl)bis(azanediyl))bis(carbonyl))bis(4-cyclopropylpyridine-6,3-diyl))bis(methylene))bis(azanediyl))dimalonate]",> 400 nM,> 10000 nM
"Cc1c(NC(=O)c2cc(C3CC3)c(CNC(C(=O)O)C(=O)O)cn2)cccc1-c1cccc(NC(=O)c2cc(C3CC3)c(CNC(C(=O)O)C(=O)O)cn2)c1C [Example 120, 2,2′-((((((2,2′-dimethyl-[1,1′-biphenyl]-3,3′-diyl)bis(azanediyl))bis(carbonyl))bis (4-cyclopropylpyridine-6,3-diyl))bis (methylene))bis(azanediyl))dimalonic acid]",1.43 nM,1760 nM
"CCOC(=O)CNCc1cnc(C(=O)Nc2cccc(-c3cccc(NC(=O)c4cc(C5CC5)c(CNCC(=O)OCC)cn4)c3C)c2C)cc1C1CC1 [Example 121, diethyl 2,2′-((((((2,2′-dimethyl-[1,1′-biphenyl]-3,3′-diyl)bis(azanediyl))bis(carbonyl))bis(4-cyclopropylpyridine-6,3-diyl))bis(methylene))bis(azanediyl)) diacetate]",16.6 nM,1340 nM
"Cc1c(NC(=O)c2cc(C3CC3)c(CNCC(=O)O)cn2)cccc1-c1cccc(NC(=O)c2cc(C3CC3)c(CNCC(=O)O)cn2)c1C [Example 122, 2,2′-((((((2,2′-dimethyl-[1,1′-biphenyl]-3,3′-diyl)bis(azanediyl))bis(carbonyl))bis(4-cyclopropylpyridine-6,3-diyl))bis(methylene))bis(azanediyl)) diacetic acid]",1.14 nM,19 nM
